Results taken from ChEMBL document CHEMBL4265991.
Active and inactive are the calls of the source. The rule behind the calls is not given here.

How the values were obtained:
[1] = biological target: Inosine-5'-monophosphate dehydrogenase (Cryptococcus neoformans var. neoformans serotype D (strain JEC21 /ATCC MYA-565) (Filobasidiella neoformans)) (UniProt Q5KP44); test: Inhibition of recombinant Cryptococcus neoformans His-tagged IMPDH expressed in Escherichia coli BL21 (DE3) using IMP as substrate and DTT containing buffer in presence of NAD
Sequence of Inosine-5'-monophosphate dehydrogenase (Cryptococcus neoformans var. neoformans serotype D (strain JEC21 /ATCC MYA-565) (Filobasidiella neoformans)) (Q5KP44 whole entry, looked up): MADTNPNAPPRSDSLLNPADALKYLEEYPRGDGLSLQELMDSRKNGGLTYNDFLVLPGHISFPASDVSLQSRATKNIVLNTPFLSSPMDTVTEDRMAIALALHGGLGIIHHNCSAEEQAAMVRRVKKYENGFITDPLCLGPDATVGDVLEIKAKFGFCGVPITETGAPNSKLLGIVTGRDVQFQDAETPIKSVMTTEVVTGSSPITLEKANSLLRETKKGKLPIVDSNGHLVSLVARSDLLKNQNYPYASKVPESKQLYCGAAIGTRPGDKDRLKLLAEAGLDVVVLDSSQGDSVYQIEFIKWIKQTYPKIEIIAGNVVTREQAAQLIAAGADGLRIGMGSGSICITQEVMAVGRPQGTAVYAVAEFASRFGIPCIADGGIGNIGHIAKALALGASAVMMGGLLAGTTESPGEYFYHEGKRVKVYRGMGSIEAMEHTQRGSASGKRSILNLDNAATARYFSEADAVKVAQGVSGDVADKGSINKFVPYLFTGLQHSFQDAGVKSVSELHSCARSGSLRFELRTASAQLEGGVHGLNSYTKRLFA

[2] = Selectivity index, ratio of IC50 for recombinant human His-tagged IMPDH1 to IC50 for recombinant Cryptococcus neoformans His-tagged IMPDH
[3] = Selectivity index, ratio of IC50 for recombinant human His-tagged IMPDH2 to IC50 for recombinant Cryptococcus neoformans His-tagged IMPDH

inhibition [1] | Ratio IC50 [2] | Ratio IC50 [3] | SMILES
inactive |  |  | O=S1(=O)C=C(Sc2nnc(-c3ccccc3)o2)c2ccccc21
 | > 30 | > 30 | COc1ccc(-c2nnc(SC3=CS(=O)(=O)c4ccccc43)o2)cc1
inactive |  |  | COc1ccccc1-c1nnc(SC2=CS(=O)(=O)c3ccccc32)o1
 | > 30 | > 30 | COC(=O)c1ccc(-c2nnc(SC3=CS(=O)(=O)c4ccccc43)o2)cc1
